Activity calls are given as the source filed them. No cut-off for these calls is given here.
molecular target: Proto-oncogene tyrosine-protein kinase Src (Homo sapiens) (UniProt P12931); assay: Inhibition of c-Src upto 100 uM; settings: not given
Sequence (P12931 2-536 limits assumed): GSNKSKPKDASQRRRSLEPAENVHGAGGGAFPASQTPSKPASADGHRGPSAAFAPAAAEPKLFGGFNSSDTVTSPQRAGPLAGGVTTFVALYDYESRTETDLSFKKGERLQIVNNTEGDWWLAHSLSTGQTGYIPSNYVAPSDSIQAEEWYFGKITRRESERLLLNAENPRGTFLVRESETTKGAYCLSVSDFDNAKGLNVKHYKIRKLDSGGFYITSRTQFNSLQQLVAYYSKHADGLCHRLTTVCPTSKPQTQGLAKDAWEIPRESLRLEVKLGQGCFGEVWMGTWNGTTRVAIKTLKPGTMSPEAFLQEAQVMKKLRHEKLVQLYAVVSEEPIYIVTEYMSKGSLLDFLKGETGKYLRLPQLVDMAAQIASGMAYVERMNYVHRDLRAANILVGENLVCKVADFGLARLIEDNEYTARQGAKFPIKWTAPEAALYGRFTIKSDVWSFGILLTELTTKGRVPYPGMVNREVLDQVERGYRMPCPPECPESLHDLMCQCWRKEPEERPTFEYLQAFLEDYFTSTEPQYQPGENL

Activity, inactive:
O=C(CCN1C(=O)/C(=C/c2cccc(Br)c2)SC1=S)Nc1ccccc1O

test system: Hepacivirus hominis; assay: Inhibition of HCV NS3 ATPase/helicase upto 100 uM; settings: not given

Activity, inactive:
O=C(CCN1C(=O)/C(=C/c2cccc(Br)c2)SC1=S)Nc1ccccc1O

molecular target: Polynucleotide kinase (Enterobacteria phage T4) (UniProt P06855); assay: Inhibition of T4 polynucleotide kinase upto 100 uM; settings: Tequatrovirus T4
Sequence (P06855 whole entry): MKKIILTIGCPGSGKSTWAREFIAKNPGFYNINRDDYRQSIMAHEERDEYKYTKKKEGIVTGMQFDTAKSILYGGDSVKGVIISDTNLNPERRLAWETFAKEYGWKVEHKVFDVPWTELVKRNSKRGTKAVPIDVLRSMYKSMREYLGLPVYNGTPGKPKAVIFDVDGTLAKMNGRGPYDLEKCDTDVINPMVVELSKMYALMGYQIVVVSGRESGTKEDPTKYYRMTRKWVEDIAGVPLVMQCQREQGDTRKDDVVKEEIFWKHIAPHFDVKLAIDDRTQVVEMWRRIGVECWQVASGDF

Activity, inactive:
O=C(CCN1C(=O)/C(=C/c2cccc(Br)c2)SC1=S)Nc1ccccc1O

molecular target: ATP-dependent RNA helicase DDX3X (Homo sapiens) (UniProt O00571); assay: Inhibition of ATPase activity in human recombinant DDX3 expressed in Escherichia coli by luciferase-based luminescence assay in presence of ATP; settings: not given
Sequence (O00571 2-662 limits assumed): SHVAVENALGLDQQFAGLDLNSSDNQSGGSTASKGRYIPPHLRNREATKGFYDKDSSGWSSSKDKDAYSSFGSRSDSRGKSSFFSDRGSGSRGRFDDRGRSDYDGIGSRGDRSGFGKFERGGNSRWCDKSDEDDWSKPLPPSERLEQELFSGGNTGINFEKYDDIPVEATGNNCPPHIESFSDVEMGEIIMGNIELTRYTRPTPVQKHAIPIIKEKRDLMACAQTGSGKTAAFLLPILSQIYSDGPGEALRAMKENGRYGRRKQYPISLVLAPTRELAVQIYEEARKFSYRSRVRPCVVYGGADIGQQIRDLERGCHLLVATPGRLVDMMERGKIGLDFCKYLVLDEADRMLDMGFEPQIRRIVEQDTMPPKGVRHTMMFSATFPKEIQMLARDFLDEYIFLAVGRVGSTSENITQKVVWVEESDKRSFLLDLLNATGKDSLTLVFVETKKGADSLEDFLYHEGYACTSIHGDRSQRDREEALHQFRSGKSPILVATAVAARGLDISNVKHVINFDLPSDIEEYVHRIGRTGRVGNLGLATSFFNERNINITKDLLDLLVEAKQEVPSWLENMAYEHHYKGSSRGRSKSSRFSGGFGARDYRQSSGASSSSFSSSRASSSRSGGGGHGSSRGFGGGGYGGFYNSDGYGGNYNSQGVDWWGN

Activity, inactive:
Cc1ccc(/C=C2\SC(=S)N(CCC(=O)Nc3cccc(Cl)c3O)C2=O)cc1
N#C/C(=C\c1ccc(-c2ccccc2Cl)o1)c1nn(-c2ccccc2)c(N)c1C#N
O=C(CCN1C(=O)/C(=C/c2ccccc2)SC1=S)Nc1ccccc1O
O=C(CCN1C(=O)/C(=C/c2ccccc2Cl)SC1=S)Nc1ccccc1O
N#C/C(=C\c1ccc(-c2ccc(C(=O)O)cc2)o1)c1n[nH]c(N)c1C#N
Cc1ccc(-c2ccc(/C=C(\C#N)c3n[nH]c(N)c3C#N)o2)c([N+](=O)[O-])c1
N#C/C(=C\c1ccc(-c2ccccc2[N+](=O)[O-])o1)c1nn(CCO)c(N)c1C#N
COc1ccccc1NC(=O)CCN1C(=O)/C(=C/c2cccc(Br)c2)SC1=S
O=C(CCN1C(=O)/C(=C/c2ccccc2)SC1=S)Nc1cccc(O)c1
O=C(CN1C(=O)/C(=C/c2cccc(Br)c2)SC1=S)Nc1cccc(O)c1
Cc1ccc(/C=C2\SC(=S)N(CCC(=O)Nc3ccccc3O)C2=O)cc1

From ChEMBL document CHEMBL1142494, “Pharmacophore modeling and molecular docking led to the discovery of inhibitors of human immunodeficiency virus-1 replication targeting the human cellular aspartic acid-glutamic acid-alanine-aspartic acid box polypeptide 3” (J Med Chem, 2008)
